Assay results taken from US11780834B2, “Solid forms of 3-((1R,3R)-1-(2,6-difluoro-4-((1-(3-fluoropropyl)azetidin-3-yl)amino)phenyl)-3-methyl-1,3,4,9-tetrahydro-2H-pyrido[3,4-b]indol-2-yl)-2,2-difluoropropan-1-ol and processes for preparing fused tricyclic compounds comprising a substituted phenyl or pyridinyl moiety, including methods …” (Hoffmann-La Roche Inc., priority 2018, dated 2023).
“And” between values parts separate entries of the source, which are not always exact repeats. Equal values may be shown once. Where a name gives a salt, the structure may show the parent alone. Read-outs that look alike come from different tables or passages of the source.

What was measured:
[1] = Approximate solubility of Compound B Form B material in 20 solvents at RT; assay type: physicochemical
Procedure: Polymorph Screening of L-Tartrate. The solubility of Compound B Form B material was estimated in 20 solvents at RT. (Table 22). Approximately 2 mg solids were added into a 3-mL glass vial. Solvents in Table 6-7 were then added into the vials stepwise until the solids were dissolved or a total volume of 1 mL was reached. Results of Table 22 were used to guide the solvent selection in polymorph screening. Polymorph screening experiments were performed using different solution crystallization or solid phase transition methods.

[2] = Stress stability of solid forms at elevated temperature and humidity (XRPD, impurities); assay type: physicochemical; settings: 40° C./75% RH, one month, tartrate
Procedure: Preliminary stress stability analysis of Compound B Form B. The XRPD patterns of Compound A salts (fumarate and tartrate) exposed to 40° C./75% RH for one month under open conditions.
XRPD of one-month stability sample.

[3] = tested on: LBD of both wild-type and mutant ER; test: Competitive binding to ER ligand-binding domain
ER = ER (Homo sapiens, UniProt P03372); test: ER degradation and ER pathway suppression; assay type: cell-based; settings: compared to GDC-0927 and GDC-0810
[4] = Pharmacokinetics after single IV administration; assay type: in vivo, and monkeys; settings: rats, dogs, monkeys
[5] = Oral bioavailability in rats and dogs; settings: rat, dog, in vivo
[6] = Oral bioavailability in monkeys; settings: monkey, in vivo
CYP2B6 = biological target: T1, CYP2B6 (Homo sapiens, UniProt P20813); test: CYP2B6 inhibition in human liver microsomes; assay type: in vitro ADME
T1 construct: from tissue; host or cells: human liver microsomes
T1 sequence (P20813 1-491): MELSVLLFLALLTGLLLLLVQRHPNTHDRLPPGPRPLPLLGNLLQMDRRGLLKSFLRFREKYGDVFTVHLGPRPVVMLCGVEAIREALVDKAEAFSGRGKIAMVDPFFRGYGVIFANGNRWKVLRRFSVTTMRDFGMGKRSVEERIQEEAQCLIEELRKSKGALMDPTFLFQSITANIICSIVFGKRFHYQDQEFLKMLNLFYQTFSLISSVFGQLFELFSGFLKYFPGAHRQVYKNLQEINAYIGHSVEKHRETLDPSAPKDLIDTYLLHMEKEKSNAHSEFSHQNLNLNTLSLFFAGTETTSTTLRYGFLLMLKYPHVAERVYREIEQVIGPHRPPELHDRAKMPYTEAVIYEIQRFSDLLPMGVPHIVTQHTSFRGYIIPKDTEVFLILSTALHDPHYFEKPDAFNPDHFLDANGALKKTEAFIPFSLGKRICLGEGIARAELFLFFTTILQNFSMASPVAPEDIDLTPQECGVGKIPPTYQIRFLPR

CYP2C8 = biological target: T2, CYP2C8 (Homo sapiens, UniProt P10632); test: CYP2C8 inhibition in human liver microsomes; assay type: in vitro ADME
T2 construct: from tissue; host or cells: human liver microsomes
T2 sequence (P10632 1-490): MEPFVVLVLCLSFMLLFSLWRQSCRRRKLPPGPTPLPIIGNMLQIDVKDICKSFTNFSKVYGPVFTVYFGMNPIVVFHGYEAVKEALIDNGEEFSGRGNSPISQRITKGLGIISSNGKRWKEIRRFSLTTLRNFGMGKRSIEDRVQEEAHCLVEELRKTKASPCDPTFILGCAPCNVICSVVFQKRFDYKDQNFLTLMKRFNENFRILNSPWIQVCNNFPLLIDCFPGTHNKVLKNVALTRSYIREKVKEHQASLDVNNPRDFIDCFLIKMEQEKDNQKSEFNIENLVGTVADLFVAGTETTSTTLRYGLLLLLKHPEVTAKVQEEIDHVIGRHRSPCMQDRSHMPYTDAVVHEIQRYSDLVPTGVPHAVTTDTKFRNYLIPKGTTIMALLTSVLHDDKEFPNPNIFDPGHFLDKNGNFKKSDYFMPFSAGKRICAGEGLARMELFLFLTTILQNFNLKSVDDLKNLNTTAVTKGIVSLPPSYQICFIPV

CYP2C9 = biological target: T3, CYP2C9 (Homo sapiens, UniProt P11712); test: CYP2C9 metabolism dependent inhibition; assay type: in vitro ADME
T3 construct: from tissue; host or cells: human liver microsomes

CYP = test: In vitro CYP inhibition (human liver microsomes) and induction (human hepatocytes) studies; assay type: in vitro ADME; settings: induction in human hepatocytes
[7] = tested on: xenograft models of ER-positive breast cancer
CYP3A4 = CYP3A4 (Homo sapiens, UniProt P08684); settings: read-out: CYP3A4 inhibition IC50, direct inhibition, human liver microsomes
[8] = female, rat, in vivo, po, 28 days
[9] = tested on: locally advanced or metastatic ER-positive breast cancer; settings: for Response / Response, per cent in parentheses: one line per patient
Procedure: (§1) Patients were enrolled in a dose-escalation stage with enrollment in an expansion stage to follow. During the single-agent dose escalation, cohorts were evaluated at escalating dose levels to determine the MTD or maximum administered dose (MAD).
Patients were monitored for adverse events during a dose-limiting toxicity (DLT) assessment window, defined as Days −7 to 28 of Cycle 1 (single-agent cohorts). For DLT evaluation, toxicity was graded according to the National Cancer Institute Common Terminology Criteria for Adverse Events, Version 4.0 (NCI CTCAE v4.0).
Patients enrolled in the single-agent Compound B dose-escalation stage, which consists of a screening period, a PK lead-in period, a treatment period, and a safety follow-up period. Continuous once daily dosing was commenced during the treatment period starting on Cycle 1 Day 1. […] The dose will be increased by up to 200% of the preceding dose level for each successive cohort, until a safety finding of concern (i.e., either a DLT, any patient with Grade ≥2 clinically significant toxicity or overall adverse event profile inappropriate for 200% increments) is observed. Once safety findings of concern are observed, dose escalation will not exceed 100% increments.

[10] = in vivo
Procedure: as §1
Continuous once daily dosing was commenced during the treatment period starting on Cycle 1 Day 1.

[11] = Four-week GLP repeat-dose oral toxicity study in female monkeys
[12] = female, monkey, plasma, po, 60 mg/kg/day

CYP3A4, sequence (P08684 whole entry): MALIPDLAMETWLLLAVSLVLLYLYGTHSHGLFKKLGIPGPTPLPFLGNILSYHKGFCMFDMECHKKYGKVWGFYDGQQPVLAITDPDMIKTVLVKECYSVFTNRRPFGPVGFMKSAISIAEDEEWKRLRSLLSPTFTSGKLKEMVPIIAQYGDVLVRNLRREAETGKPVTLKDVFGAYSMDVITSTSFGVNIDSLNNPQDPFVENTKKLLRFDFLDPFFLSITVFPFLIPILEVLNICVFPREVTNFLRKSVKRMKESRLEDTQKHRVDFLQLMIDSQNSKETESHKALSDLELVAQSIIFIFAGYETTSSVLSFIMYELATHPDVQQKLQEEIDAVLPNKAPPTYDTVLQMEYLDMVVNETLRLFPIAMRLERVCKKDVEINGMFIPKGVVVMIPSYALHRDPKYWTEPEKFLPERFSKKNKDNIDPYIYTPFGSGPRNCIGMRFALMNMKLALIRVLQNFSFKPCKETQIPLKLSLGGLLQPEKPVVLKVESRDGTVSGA
T3 sequence (P11712 whole entry): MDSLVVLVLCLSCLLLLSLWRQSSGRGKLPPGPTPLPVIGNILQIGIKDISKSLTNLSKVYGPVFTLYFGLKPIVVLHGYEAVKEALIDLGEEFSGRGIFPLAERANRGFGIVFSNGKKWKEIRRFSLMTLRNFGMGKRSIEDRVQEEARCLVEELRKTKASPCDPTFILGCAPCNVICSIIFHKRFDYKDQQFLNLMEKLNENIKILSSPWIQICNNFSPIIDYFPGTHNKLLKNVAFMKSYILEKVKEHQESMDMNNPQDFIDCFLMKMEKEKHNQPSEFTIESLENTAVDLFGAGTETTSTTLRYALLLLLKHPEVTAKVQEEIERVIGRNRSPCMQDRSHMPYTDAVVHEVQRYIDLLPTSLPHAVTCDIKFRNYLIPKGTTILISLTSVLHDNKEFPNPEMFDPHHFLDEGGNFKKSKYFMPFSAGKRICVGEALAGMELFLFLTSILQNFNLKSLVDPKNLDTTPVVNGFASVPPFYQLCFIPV
ER, sequence (P03372 whole entry): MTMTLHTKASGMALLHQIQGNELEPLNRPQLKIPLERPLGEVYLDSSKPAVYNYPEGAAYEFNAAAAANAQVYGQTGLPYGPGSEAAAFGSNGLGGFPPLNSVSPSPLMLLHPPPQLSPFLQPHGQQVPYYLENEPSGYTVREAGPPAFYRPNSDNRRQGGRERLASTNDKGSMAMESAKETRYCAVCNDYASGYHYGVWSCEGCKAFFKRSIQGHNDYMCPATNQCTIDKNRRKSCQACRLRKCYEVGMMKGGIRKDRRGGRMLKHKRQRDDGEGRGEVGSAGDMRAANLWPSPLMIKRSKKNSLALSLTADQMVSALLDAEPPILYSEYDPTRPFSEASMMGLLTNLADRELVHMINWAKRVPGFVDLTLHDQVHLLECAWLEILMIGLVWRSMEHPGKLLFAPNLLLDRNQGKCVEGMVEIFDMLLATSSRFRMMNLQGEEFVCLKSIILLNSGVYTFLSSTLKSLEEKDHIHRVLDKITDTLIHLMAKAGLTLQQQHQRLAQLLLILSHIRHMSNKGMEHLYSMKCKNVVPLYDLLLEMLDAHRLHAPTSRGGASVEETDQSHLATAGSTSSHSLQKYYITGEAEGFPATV

For `C[C@@H]1Cc2c([nH]c3ccccc23)[C@@H](c2c(F)cc(NC3CN(CCCF)C3)cc2F)N1CC(F)(F)CO` [Compound B, 3-((1R,3R)-1-(2,6-difluoro-4-((1-(3-fluoropropyl)azetidin-3-yl)amino)phenyl)-3-methyl-1,3,4,9-tetrahydro-2H-pyrido[3,4-b]indol-2-yl)-2,2-difluoropropan-1-ol tartrate], the solubility ([1]; organic solvent or mixture, thermodynamic from solid, 1,4-Dioxane) was < 2200 µg/mL, the solubility ([1]; organic solvent or mixture, thermodynamic from solid, 2-MeTHF) was < 1900 µg/mL and the solubility ([1]; organic solvent or mixture, thermodynamic from solid, ACN) was < 2100 µg/mL. For the same compound, the solubility ([1]; organic solvent or mixture, thermodynamic from solid, Acetone) was 2100 to 7000 µg/mL, the solubility ([1]; organic solvent or mixture, thermodynamic from solid, Anisole) was < 1900 µg/mL and the solubility ([1]; organic solvent or mixture, thermodynamic from solid, CPME) was < 2100 µg/mL. The solubility ([1]; organic solvent or mixture, thermodynamic from solid, DCM) was < 2000 µg/mL, the solubility ([1]; organic solvent or mixture, thermodynamic from solid, DMSO) was > 38000 µg/mL and the solubility ([1]; organic solvent or mixture, thermodynamic from solid, EtOAc) was < 1900 µg/mL. The solubility ([1]; organic solvent or mixture, thermodynamic from solid, EtOH) was < 1900 µg/mL, the solubility ([1]; organic solvent or mixture, thermodynamic from solid, IPA) was < 2100 µg/mL and the solubility ([1]; organic solvent or mixture, thermodynamic from solid, IPAc) was < 1900 µg/mL. The solubility ([1]; organic solvent or mixture, thermodynamic from solid, MEK) was < 2000 µg/mL, the solubility ([1]; organic solvent or mixture, thermodynamic from solid, MIBK) was < 1900 µg/mL and the solubility ([1]; organic solvent or mixture, thermodynamic from solid, MTBE) was < 2100 µg/mL. The solubility ([1]; organic solvent or mixture, thermodynamic from solid, MeOH) was 6700 to 20000 µg/mL, the solubility ([1]; organic solvent or mixture, thermodynamic from solid, THF) was 2100 to 7000 µg/mL and the solubility ([1]; organic solvent or mixture, thermodynamic from solid, Toluene) was < 1900 µg/mL. For the same compound, the solubility ([1]; organic solvent or mixture, thermodynamic from solid, n-Heptane) was < 2000 µg/mL, the solubility ([1]; water, thermodynamic from solid, H2O) was < 1900 µg/mL and the “Solid form (XRPD) after stress stability” value ([2]; open) was “did not change”. For the same compound, the “Impurities after stress stability” value ([2]; listed as tartrate salt) was “lacked the impurities”, the “Potency of competitive binding to ER LBD” value [3] was “nanomolar potency” and the “ER degradation & ER pathway suppression” value (ER) was “superior”. For the same compound, the half-life ([4]; rat, dog, monkey, in vivo, read-out: Terminal elimination half-life) was 7 to 24 h, the Clearance [4] was “low to moderate” and the Volume of distribution [4] was “large”. The bioavailability [5] was 41 to 55%, the bioavailability [6] was 17% and the IC50 (CYP2B6) was 13 µM. For the same compound, the IC50 (CYP2C8) was 21 µM, the “Metabolism dependent inhibition of CYP2C9” value (CYP2C9) was “weak” and the “Potential for drug-drug interactions” value (CYP) was “low-to-moderate”. The “Tolerability of doses in xenograft models” value ([7]; in vivo) was “well tolerated”, the Anti-tumor activity ([7]; including patient-derived xenograft with ESR1 mutation (ER.Y537S)) was “dose-dependent anti-tumor activity” and the “Fold lower dose giving same in vivo efficacy as GDC-0927” value ([7]; vs GDC-0927) was 100 ×. For the same compound, the Efficacious dose range ([7]; xenograft models) was 0.1 to 10 mg/kg/day, the IC50 (CYP3A4; midazolam 1′-hydroxylation) was 6.5 µM and the IC50 (CYP3A4; testosterone 6β-hydroxylation) was 26 µM. For the same compound, the “Severely toxic dose for 10% of animals (STD10)” value [8] was 100 mg/kg, the “Response of individual patient (CT, FES-PET)” value ([9]; 10 mg, after 3 cycles) was “showed response” and the FES-PET response ([9]; all treated patients with FES-PET, qualitative) was “near-complete (NC) or complete responses (CR)”. For the same compound, the Response ([9]; cohort 1 (10 mg), tartrate) was “uPR”, the “Response, per cent in parentheses” value ([9]; cohort 1 (10 mg), tartrate) was −40% and −27% and the Response ([9]; cohort 1-BF (10 mg)) was “cPD”. For the same compound, the “Response, per cent in parentheses” value ([9]; cohort 2 (30 mg)) was −9%, the “DLTs, SAEs, AESIs, clinically significant laboratory abnormalities” value ([9]; in vivo) was “no observed” and the “Plasma exposure vs dose” value [10] was “increased proportionally”. The “Steady state exposure vs dose” value [10] was “higher than dose proportional”, the MTD at 4 weeks ([11]; female, monkey, in vivo, po) was 60 mg/kg and the AUC(0-t) [11, 12] was 16200 ng·h/mL. The Cmax [11, 12] was 841 ng/mL, the “Exposure multiple (AUC) over anticipated human Phase I starting dose at which PLD was observed” value ([11]; monkeys) was ≥ 6 fold and the Exposure factor ([11]; monkeys, 20 mg/kg) was 6 fold. The PLD finding ([11]; monkeys, 20 mg/kg) was “limited to minimal changes in the lung” and the “Increase in systemic exposure with dose” value ([11]; monkeys, 28-day oral) was “dose proportional”.
